Results published in patent publication US20250326779A1, “ANTI-HIV COMPOUNDS” (priority 2024, published 2025).
Converted amounts (≈) assume the structure as drawn.

Columns and labels:
Solubility in FaSSIF = assay type: physicochemical; settings: 23 °C, thermodynamic from solid; FaSSIF pH 6.5, 5 mg/mL dose concentration, 2-hour incubation, ambient temperature
Method: Buffer Preparation: Fasted State Simulated Intestinal Fluid (FaSSIF): Simulated Intestinal Fluid (SIF) powder containing a complex of Taurocholate and Lecithin (4:1 molar ratio) was obtained from Biorelevant. […] The buffer was prepared with HPLC H2O.
Test Compounds: Each test compound was placed in a vial containing approximately 7 mg of material. Aliquots were weighed out for each assay media at each time point to be analyzed. The buffer was added to each vial such that the final dose concentration of 5 mg/mL was achieved. Samples were then vortexed for 5-10 seconds.
The plate was sealed with a pierceable heat seal and analyzed by HPLC-UV.

[1] = Intestinal S9 Assay (human); assay type: in vitro ADME; settings: pooled intestinal S9 fraction, 1.0 mg/mL S9 protein, 2 μM substrate, TRIS pH 7.4, read-out: Human GI S9 T½
Method: (§1) Reagents. Stock solutions of test compounds in dimethyl sulfoxide (DMSO) having a final concentration of 10 mM were prepared and used in all experiments. Sekisui XenoTech (Kansas City, KS) provided pooled intestinal S9 fractions. All other chemicals were purchased from Sigma-Aldrich (St. Louis, MO) or VWR (West Chester, PA).
(§2) Intestinal S9 Assay: For each test compound, an aliquot of the test compound was added to S9 stock diluted with TRIS buffer (100 mM TRIS, 1 mM ZnCl2, 1 mM MgCl2), pH 7.4, to obtain an incubation protein concentration of 1.0 mg/mL. The incubation was initiated by the addition of the substrate to the S9 reaction mixture to a final concentration of 2 μM. […] After quenching, the plates were centrifuged at 3000×g for 30 minutes. 150 μL aliquots of each supernatant were transferred to new plates and 150 μL water was added. Aliquots (10 μL) of the prepared samples were analyzed on a Thermo Q-Exactive mass spectrometer as described below.
(§3) Liquid Chromatography-Mass Spectrometry: Quantification of test compounds and control substrate was performed by analyte/internal standard peak area ratio (PAR) values measured on a Thermo Q-Exactive mass spectrometer coupled to a Dionex UltiMate 3000 HPLC with a Leap Technologies HTC PAL autosampler. The column used for analysis was a Thermo Scientific Hypersil GOLD (1.9 μm particle size, 50×2.1 mm). […]

[2] = Intestinal S9 Assay (dog); assay type: in vitro ADME; settings: pooled intestinal S9 fraction, 1.0 mg/mL S9 protein, 2 μM substrate, TRIS pH 7.4, read-out: Dog GI S9 T½
Method: as §1, §2, §3

[3] = target: T1, bovine intestinal alkaline phosphatase (Bos taurus, UniProt P19111); test: BiALP: conversion by bovine intestinal alkaline phosphatase; assay type: in vitro ADME; settings: remaining substrate after 60 min at 37° C., 2 μM substrate, 100 ng/mL iALP, Tris buffer pH 7.8
T1 construct: purchased Millipore Sigma (St. Louis, MO) or Thermo Fisher Scientific (Waltham, MA)
Method: Fosamprenavir and its parent compound (amprenavir) were purchased from Millipore Sigma (St. Louis, MO). Test compounds, Intermediate A, fosamprenavir, and amprenavir were each separately dissolved in dimethyl sulfoxide (DMSO) at a concentration of 10 mM to form stock solutions.
All other chemicals were purchased from Millipore Sigma (St. Louis, MO) and Thermo Fisher Scientific (Waltham, MA). The chemicals included purified bovine intestinal alkaline phosphatase as a lyophilized powder (specific activity: 101 diethanolamine units/mg solid). Internal Standard/Quench (IS/Q) was 100 nM labetalol in 99:1 (v/v) acetonitrile/formic acid.
Incubations were performed with Tris buffer alone (0.1 M Tris-HCl pH 7.8 containing 1 mM MgCl2 and 1 mM ZnCl2) or the same Tris buffer further containing 100 ng/mL iALP (0.01 units/mL). Triplicate 100 μL aliquots of Tris buffer±iALP were warmed to 37° C. and the reactions were initiated by the addition of the test compound or fosamprenavir to obtain final substrate concentrations of 2 μM. Incubations were then continued at 37° C. […] Aliquots (15 μL) of the diluted supernatants were analyzed by mass spectrometry as described below.
Quantification of the test compounds and fosamprenavir was performed by analyte/internal standard peak area ratios (PARs) with comparison to 2 μM Intermediate A and amprenavir, respectively. […]

HIV-1 IIIB strain = test: MT-4 HIV Wild Type Virus Infection Assay (IIIB Virus); assay type: cell-based; settings: Human immunodeficiency virus 1, MT4, 120 h; MT-4 cells acutely infected with HIV-1 IIIB, 5 day incubation, Cell-titer glo
Method: MT-4 HIV Wild Type Virus Infection Assay (IIIB Virus)
Test compounds and controls were serially diluted and spotted in replicate into 384 well black assay plates via acoustic transfer (Echo). MT-4 cells were grown in batch, centrifuged and resuspended into fresh CCM media (RPMI w/10% FBS, 1% PS) at 2×10^6 cells/ml. MT-4 cells were acutely infected with HIV-1 IIIB strain. The size of each infection mix was scaled by the number of sample plates to be tested. Each infection mix was transferred into 5 mL closed tubes and nutated rapidly on a shaker at 37° C. incubator for 1 hour. The infection mixes were then diluted 25× in fresh cell culture media and then added to assay plates at 40 μL per well using a ViaFlo 384 pipettor. After 5 day incubation at 37° C. in a C02 incubator, assay plates were processed with Cell-titer glo reagent using a ViaFlo 384 with an addition/mixing program. Plates were read immediately on Envision reader. Assay signals were plotted and dose response curves generated to determine individual compound EC50s.

pH 7 Stability Assay = assay type: physicochemical; settings: ACN/pH 7.4 buffer with 1% DMSO stock; 1/49.5/49.5% v/v DMSO stock/ACN/pH 7.4 buffer, UPLC 0-24 h; read-out: pH7 T½
Method: pH 7 Stability Assay: A sample stock at approximately 10 mg/mL of each test compound was prepared with dimethyl sulfoxide (DMSO) in vials. […] Sample vials were prepared by adding 495 μL ACN into a UPLC vial followed by 495 μL pH 7.4 buffer. Then 10 μL test compound stock solution from the first step was added to that UPLC vial. 1000 uL 50/50% v/v ACN/Water was used as diluent blank.
Metabolic stabilities were determined by measuring the rates of disappearance of test compound and positive control substrate. • Data (% of substrate remaining) were plotted on a semi-log scale and fitted using an exponential decline model:
[formula] • Assuming a first-order reaction, the slope (k) is extrapolated from the aforementioned plotted data.

T1 sequence (P19111 20-506 limits assumed): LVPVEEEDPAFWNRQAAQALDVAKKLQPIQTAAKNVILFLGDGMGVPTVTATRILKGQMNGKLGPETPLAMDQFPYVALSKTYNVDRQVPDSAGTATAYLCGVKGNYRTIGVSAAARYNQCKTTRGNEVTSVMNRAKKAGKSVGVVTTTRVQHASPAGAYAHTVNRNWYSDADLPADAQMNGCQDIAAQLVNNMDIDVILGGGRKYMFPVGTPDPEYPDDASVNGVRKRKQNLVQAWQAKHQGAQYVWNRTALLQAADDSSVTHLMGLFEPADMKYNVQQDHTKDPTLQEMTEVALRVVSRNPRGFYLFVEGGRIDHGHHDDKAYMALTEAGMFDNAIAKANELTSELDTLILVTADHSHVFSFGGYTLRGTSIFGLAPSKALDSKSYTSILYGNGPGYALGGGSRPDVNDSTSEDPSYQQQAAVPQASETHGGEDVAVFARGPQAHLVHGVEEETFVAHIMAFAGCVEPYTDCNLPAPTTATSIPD

SMILES	solubility at 2 h (Solubility in FaSSIF)	half-life at 2 μM [1]	half-life at 2 μM [2]	[Compound] [3]	EC50 (HIV-1 IIIB strain)	half-life at 0.1 mg/mL (pH 7 Stability Assay)
COC(=O)N[C@H](C(=O)N[C@@H](Cc1ccc(C#Cc2cnc(N3CC4CCC(C3)N4C3COC3)nc2)cc1)[C@H](CN(Cc1c(F)cc(-c2ccn(C(F)F)n2)cc1F)NC(=O)[C@@H](NC(=O)OC)C(C)(C)C(F)(F)F)OCOP(=O)(O)O)C(C)(C)C(F)(F)F [Compound 1, methyl ((5S,8S,9S,14S)-11-(4-(1-(difluoromethyl)-1H-pyrazol-3-yl)-2,6-difluorobenzyl)-16,16,16-trifluoro-15,15-dimethyl-8-(4-((2-(8-(oxetan-3-yl)-3,8-diazabicyclo[3.2.1]octan-3-yl)pyrimidin-5-yl)ethynyl)benzyl)-3,6,13-trioxo-9-((phosphonooxy)methoxy)-5-(1,1,1-trifluoro-2-methylpropan-2-yl)-2-oxa-4,7,11,12-tetraazahexadecan-14-yl)carbamate]	580 µg/mL (≈ 458 µM)	0.787 h	1.36 h	1691 nM	22.3 nM	> 480 h
CC(C)CN(C[C@@H](OP(=O)(O)O)[C@H](Cc1ccccc1)NC(=O)O[C@H]1CCOC1)S(=O)(=O)c1ccc(N)cc1 [Fosamprenavir, reference compound]				1605 nM		
